Earlier results, collected in patent US20130259998A1, “FOODSTUFF PRESERVING COMPOSITION AND USE THEREOF” (NIACET B.V., priority 2012, published 2013).

conditions: ingredient as such

SMILES | pH as such
CC(=O)O.CC(=O)O.NC(=N\CCCCCC/N=C(N)/N=C(\N)Nc1ccc(Cl)cc1)/N=C(\N)Nc1ccc(Cl)cc1 [diacetate] | 4.5-5.0
CC(=O)[O-].[Na+] [sodium acetate] | 8.9
CC(O)C(=O)[O-].[Na+] (stereo not drawn) [sodium lactate] | 6.3
